Data on three compounds can be found in patent publication EP2207528B1, “PHARMACEUTICAL COMPOSITION” (STI Pharmaceuticals Ltd., priority 2007, dated 2009).

A short description of data set [1]: Open study, THC-CBD inhaled (pMDI) vs intravenous, plasma pharmacokinetics by GC/MS. Format: in vivo, healthy volunteers. The following applies: for time measurable in plasma after administration: 360 mcg i.h. and i.v. doses; for half-life: human, plasma, 720 ug, read-out: elimination half-lives; for half-life / mean i.h. bioavailability (calculated vs. i.v.) / time of plasma peak post-drug: 720 mcg. The source says:
In an open study on 12 healthy volunteers a combination of THC and cannabidiol (CBD) was compared after inhalation (i.h.) and intravenously (i.v.) (see Rudolf Brenneisen, Pascale Meyer, Manuela Langos, Christian Steup and Andrew Davies, IACM Congress 2007, 05.10.2007 Cologne).
The liquid aerosol was produced by an in-vitro validated pMDI device, releasing about 45% of the cannabinoid dose, enabling a dosage of about 90 mcg THC and 90 mcg CBD per actuation. The actuator was used from Bespak with an orifice diameter of 0.22mm.
Three subjects (pilot study) received 360 and 9 subjects 720 mcg THC-CBD, corresponding to 4 and 8 actuations, respectively. The addition of a Lidocain HCL to the pulmonal preparation was expected to prevent mucosa irritation and coughing. The pharmacokinetic evaluation was based on plasma profiles aquired by GC/MS. Adverse effects were monitored by visual analog scales (VAS) and measuring vital functions.

For data set [2] the following is noted: oral; cited from earlier work.
The conditions of data set [3]: after inhalation of a THC aerosol, Pari Master; cited from earlier work.
The nature of data set [4]: Solubility of local anaesthetic in ethanol and HFA 227.

Molecules are shown by their SMILES. ≈ marks a conversion by molar mass, not a printed value. Read-outs that look alike come from different tables or passages of the source.

As for `C=C(C)[C@@H]1CCC(C)=C[C@H]1c1c(O)cc(CCCCC)cc1O` [CBD, Cannabidiol], the “time measurable in plasma after administration” value in data set [1] was no more than 20 min. Further, the half-life in data set [1] (inhaled, i.h.) worked out at 11 min; in data set [1] (iv, i.v.) it was 24 min. In addition, the “mean i.h. bioavailability (calculated vs. i.v.)” value in data set [1] (i.h.) is 59 ± 47%. In addition, the “time of plasma peak post-drug” value in data set [1] (i.h.) and in data set [1] (i.v.) was 5 min in each case.
By bioavailability is commonly meant the share of a dose that reaches the circulation, judged against a reference dose that is usually intravenous. On to `CCCCCc1cc(O)c2c(c1)OC(C)(C)[C@@H]1CCC(C)=C[C@@H]21` [THC, delta-9-Tetrahydrocannabinol], for which the “time measurable in plasma after administration” value in data set [1] is listed as no more than 20 min. Besides, the main metabolite result in data set [1] (after i.h.) is listed as “Conjugated 11-carboxy-THC”. Also, the THC metabolism entry in data set [1] (after i.h., compared with oral (p.o.) administration) is “less pronounced than after oral”. Further, the half-life was 7 min in data set [1] (inhaled, i.h.) and 22 min in data set [1] (iv, i.v.). In data set [1] (i.h.), the “mean i.h. bioavailability (calculated vs. i.v.)” value is 55 ± 37%. In addition, the “time of plasma peak post-drug” value in data set [1] (i.h.) and in data set [1] (i.v.) was 5 min each time. In addition, the values for the bioavailability in data set [2] and in data set [3] were 5-20% and 29%, respectively.
As a reminder, the solubility is how much of the substance goes into solution per volume. Regarding `CCCCNc1ccc(C(=O)OCCN(C)C)cc1` [Tetracain, Tetracaine Base], the solubility in data set [4] (ethanol, organic solvent or mixture) came to 450 mg/mL (≈ 1700 mM); in data set [4] (hfa 227, organic solvent or mixture) it was 40 mg/mL (≈ 151 mM). The “Limit of solubility in Ethanol” value in data set [4] (in Ethanol) was determined as 450 mg/mL. For the same compound, in data set [4] (in HFA 227), the “Limit of solubility in HFA 227” value was found to be 40 mg/mL.
